Measured values as given in patent US12612375B2, “Antimicrobial and anticancer agents” (Persevere Therapeutics Inc., priority 2021, dated 2026).

Legend:
Escherichia coli = assay: Agar diffusion test Escherichia coli; format: cell-based; details: for Inhibition Zone: Escherichia coli (ATCC 8739), gram-negative
From the text: (§1) Different gram-negative and gram-positive bacteria are used for testing the compounds of the present disclosure: Staphylococcus aureus and Escherichia coli (ATCC-LGC Standards GmbH, Wesel, Germany); Enterococcus faecilis, Enterococcus faecilum, Staphylococcus aureus, Clostridium difficile, Acineobacter baumannii, Pseudomonas aeruginosa, Stenotrophomonas maltophilia, Citrobacter freundii, Escherichia coli, Klebsiella pneomoniae, Morganelle morganii, Bactroides fragilis, Helicobacter pylori (fresh clinical isolates). All isolates are cultured with Müller-Hinton-Agar excluding Bacteroides fragilis and Helcobacter pylori. Bacteroides fragilis is cultured with Müller-Hinton-Agar containing 5% Horseblood and 20 mg/l ß-NAD. Helicobacter pylori is cultured with Chocolat PolyViteX-Agar.
(§2) The antibacterial potential of compounds is examined by the Kirby-Bauer disc diffusion test using Müller-Hington agar. A 10 mm diameter disk soaked in 150 μl of distilled water containing 10 mg of the test substance was placed on Müller-Hington agar (bioMeieux, Geneve, Switzerland) holding a pre-lawn of the according test bacteria. The plates are incubated at 37° C. for 24 hours and the zone of inhibition is recorded. Culture media and sterilized distilled water were used as a control. N-acetylcysteine (NAC) is used as an anti-oxidant control.

[1] = test system: Staphylococcus aureus (MRSA); assay: Agar diffusion test Staphylococcus aureus (MRSA); format: cell-based; details: for Inhibition Zone: Staphylococcus aureus (MRSA Nr. 2065), gram-positive
From the text: as §1, §2

[2] = test system: Staphylococcus aureus (ATCC 6538); assay: Agar diffusion test Staphylococcus aureus (ATCC 6538); format: cell-based; details: gram-positive
From the text: as §1, §2

[3] = Human fresh blood stability / half-life at 37° C. in vitro; format: in vitro ADME; details: for human blood stability profile compared to 2250: K2-EDTA human blood; for half-life compared to the half-life of taurolidine / half-life at 256 μM: human; for half-life at 256 μM: blood
Experimental: The half-life of each of compounds 2289, 2293, and 2296 in human fresh blood was measured at 37° C. in vitro. For 2289 and 2293 into 2250, K2-EDTA human blood was spiked with 2289 or 2293 at 256 μM; 2250 at 26 μM and 2244 at 26 μM (n=1). The pool remained at 37° C. for 20-25 min and then an aliquot was centrifuged (2500 g for at least 5 minutes at 4° C.). After centrifugation the human plasma was collected and immediately frozen at −80° C. This aliquot corresponded to the T0. The remaining pool was aliquoted and kept at 37° C. An aliquot was collected, centrifuged (2500 g for at least 5 minutes at 4° C.) and the recovered plasma was frozen at −80° C. after at least 0.25, 0.5, 1, 6, 8, 24 and 48 hours. Stability was determined by measuring the 2289 and 2293 peak area at each time point compared to T0. For 2296 into its metabolite 1-hydoxypropane-2-sulfonamide, K2-EDTA human blood was spiked with 2296 at 256 μM and 1-hydroxypropane-2-sulfonamide at 26 μM (n=1). The pool remained at 37° C. for 20-25 min and then an aliquot was centrifuged (2500 g for at least 5 minutes at 4° C.). After centrifugation the human plasma was collected and immediately frozen at −80° C. This aliquot corresponded to the TO. The remaining pool was aliquoted and kept at 37° C. An aliquot was collected, centrifuged (2500 g for at least 5 minutes at 4° C.) and the recovered plasma frozen at −80° C. after at least 0.5, 1, 3, 6, 8 and 24 hours/ Stability was determined by measuring 2296 peak area at each time point compared to T0.

Solubility in water = format: physicochemical; details: at room temperature
Experimental: Re-crystallization with, e.g., • Ethanol • Ethyl acetate • Ethyl acetate/light petroleum Physical Properties • Melting range: 79-83° C. • Solubility in water: about 1.5% at room temperature • Melting range: 52-53° C. • Solubility in water: <1.5% at room temperature • Melting range: 74-75° C. • Solubility in water: min. 1% at room temperature

[4] = Human fresh blood stability / half-life at 37° C. in vitro; format: in vitro ADME; details: 2296 into 1-hydroxypropane-2-sulfonamide, human blood 37° C., 256 μM, Time 48 h
Enterococcus faecium = assay: Agar diffusion test Enterococcus faecium; format: cell-based; details: 10 mm disk with 10 mg test substance, 37° C., 24 hours
From the text: as §1, §2

MDA MB 468 cells = assay: Cell migration assay (scratch of confluent monolayer); format: cell-based, human; details: 2 to 5 days, compared to untreated control, semi-quantified (FIG. 1)
Experimental: Cells are plated into the 60-mm dishes to create a confluent monolayer and are incubated for 24 hours allowing cells to adhere and spread. The required number of cells for a confluent monolayer depends on the particular cell type. After creating a scratch of the cell monolayer, the gaparea is examined by phase-contrast-microscopy. Images are captured at the beginning and at regular intervals during cell migration (48, 72, and 120 hours (5 d)) closing the scratch, to semi-quantify the migration rate of the cells.
Cell migration assay: cell migration of compounds 2289, 2244, 2287, 2255, 2256 compared to non-treated control (NK) and positive control (compound 2250). Comparative compounds 2244, 2287, 2255, 2256 have the following structures:
Using cell migration assays, the migration rate of different cancer cell entities under treatment with 2289, negative control and positive control (2250) was semi-quantified.

[5] = test system: MDA MB 468, HT29, MCC 14.2, Panc TuI; assay: MTT assay for cell viability, all tested cancer cell lines (Example 2); format: cell-based, human; details: FIG. 2
Experimental: (§3) Cells are seeded individually to obtain a sub confluent monolayer in a 96 well plate format and are incubated for 24 hours prior treatment. To examine a dose response regarding the antineoplastic activity cells are incubated with increasing concentrations (100, 200, 500, 1000, 1500, 2000 μmol/l) of all different Oxathiazinane derivatives and ddH2O as control for 24 and 48 hours. After the exposition time 10 μl MTT (3-(4,5-Dimethylthiazol-2-yl)-2,5-diphenyltetrazoliumbromid) reagent (5 mg/ml) is added and incubated for 2 hours before violet Formazan crystals are dissolved in 100 μl DMSO (Dimethylsulfoxide). Viability of the cells can be analyzed by using a microplate absorbance reader by measuring the OD560 (ASYS, UVM340, Anthos Mikrosystheme GmbH, Germany). The assay is performed using 8 replicates in three independent experiments with consecutive passages.
(§4) Anti-neoplastic activity of compounds 2289, 2293, and 2296 was determined according to the MTT assay and BrdU assay described above.

[6] = test system: all tested cancer cell lines (MDA MB 468 highest, MCC 14.2 lowest response); assay: BrdU assay for cell proliferation, all tested cancer cell lines (Example 2); format: cell-based, human; details: FIG. 3
Experimental: Cells are seeded individually to obtain a sub confluent monolayer in a 96 well plate format and are incubated for 24 hours prior to treatment. To examine the dose response regarding their anti-proliferative activity, cells are incubated with increasing concentrations (100, 200, 500, 1000, 1500 and 2000 μmol/l) of all different Oxathiazinane derivates and ddH2O as control for 6 h prior BrdU proliferation assay (5-bromo-2-deoxyuridine)-ELISA (Roche Applied Science, Mannheim, Germany) according to the manufacturer's instructions. […] The amount of synthesized DNA is detected using a microplate absorbance reader measuring at 370 nm with a reference wavelength of 492 nm (ASYS, UVM340, Anthos Mikrosysteme GmbH, Krefeld, Germany). BrdU assays are performed with 8 replicates of three independent experiments with consecutive passages.
as §4

tumor stem cells = assay: Killing tumor stem cells in tissue culture in vitro; format: cell-based
Experimental: In some embodiments, the taurolidine, taurultam, or a mixture thereof is administered in a tumor stem cell killing composition at a concentration of about 0.01 to about 500 μg/ml. In some embodiments, the taurolidine, taurultam, or a mixture thereof is administered in a tumor stem cell killing composition at a concentration of about 0.1 to about 100 μg/ml. In some embodiments, the taurolidine, taurultam, or a mixture thereof is administered in a tumor stem cell killing effective composition at a concentration of about 10 to about 50 μg/ml. Taurolidine is effective at killing tumor stem cells in tissue culture in vitro at 0.01 μg/ml.

[7] = previously reported; cited from earlier work
AsPc1 cells = assay: MTT cytotoxicity assay AsPc1; format: cell-based; details: AsPc1, after 24 h, compared to untreated control (NC), t-test
Experimental: as §3
A MTT Cytotoxicity assay of the cell line AsPc1 with different oxathiazine derivatives was performed.

Enterococcus faecalis = assay: Agar diffusion test Enterococcus faecalis; format: cell-based; details: 10 mm disk with 10 mg test substance, 37° C., 24 hours
From the text: as §1, §2

[8] = Escherichia coli, 10 mm disk with 10 mg test substance, 37° C., 24 hours
[9] = Staphylococcus aureus (MRSA), 10 mm disk with 10 mg test substance, 37° C., 24 hours
[10] = 2289 or 2293 spiked at 256 μM into K2-EDTA human blood, 37° C., Time 0 h (T0, after 20-25 min at 37° C.)

| Compound | Inhibition Zone (Escherichia coli) [mm] | Inhibition Zone [2] [mm] | human blood stability profile compared to 2250 ([3]; 37° C.) | half-life compared to the half-life of taurolidine [3] | half-life at 256 μM [3] [h] | Solubility in water (Solubility in water) | zone of inhibition at 10000 µg/disc (Escherichia coli; [8]) [mm] | zone of inhibition at 10000 µg/disc [1, 9] [mm] | further results |
| --- | --- | --- | --- | --- | --- | --- | --- | --- | --- |
| CC1COCNS1(=O)=O (centres unmarked) [Compound 2296] | 23.0 | 38.0 | very similar profile | significantly higher | 5 to 6 | ≥ 1% |  |  | Inhibition Zone [1]: 43.0 mm; % Stability ([3]; 2296 into 1-hydroxypropane-2-sulfonamide, human blood 37° C., 256 μM, Time 0 h): 100%; % Stability ([3]; 2296 into 1-hydroxypropane-2-sulfonamide, human blood 37° C., 256 μM, Time 0.5 h): 97%; % Stability ([3]; 2296 into 1-hydroxypropane-2-sulfonamide, human blood 37° C., 256 μM, Time 1 h): 92%; % Stability ([3]; 2296 into 1-hydroxypropane-2-sulfonamide, human blood 37° C., 256 μM, Time 3 h): 71%; % Stability ([3]; 2296 into 1-hydroxypropane-2-sulfonamide, human blood 37° C., 256 μM, Time 6 h): 52%; % Stability ([3]; 2296 into 1-hydroxypropane-2-sulfonamide, human blood 37° C., 256 μM, Time 8 h): 42%; % Stability ([3]; 2296 into 1-hydroxypropane-2-sulfonamide, human blood 37° C., 256 μM, Time 24 h): 7%; % Stability [4]: 1% |
| CN1COCCS1(=O)=O [Compound 2255] |  |  |  |  |  |  | < 10 | < 10 |  |
| NS(=O)(=O)CCO [Compound 2244] |  |  |  |  |  |  | < 10 |  | zone of inhibition at 10000 µg/disc (Enterococcus faecium): < 10 mm |
| CC(=O)N1COCCS1(=O)=O [Compound 2289] | 18.5 | 27.5 | very similar profile | significantly higher | 5 to 6 | about 1.5% | 18.5 | 27.5 | migration rate (MDA MB 468 cells): lower migration rate; reduction of living cells (cell viability, MTT) [5]: significant reduction of living cells; reduction of proliferating cells (BrdU) [6]: significant reduction of proliferating cells; % Stability [3, 10]: Not stable- |
| O=S1(=O)CCN(CN2CCS(=O)(=O)NC2)CN1 [taurolidine] |  |  |  |  |  |  |  |  | concentration effective at killing tumor stem cells (tumor stem cells): 0.01 µg/mL; half-life [7]: about 30 minutes |
| CCC(=O)N1COCCS1(=O)=O [Compound 2293] | 19.5 | 31.5 | very similar profile | significantly higher | 5 to 6 | < 1.5% |  |  | concentration from which a significant impact on cell viability is shown (AsPc1 cells): ≥ 500 µM; Inhibition Zone [1]: 32.5 mm; % Stability [3, 10]: Not stable- |
| CC1NS(=O)(=O)CCO1 (centres unmarked) [Compound 2256] |  |  |  |  |  |  | < 10 | < 10 |  |
| O=S1(=O)CCOCN1 [Compound 2250] |  |  |  |  |  |  |  |  | migration rate (MDA MB 468 cells): clearly inhibited; reduction of living cells (cell viability, MTT) [5]: significant reduction of living cells; reduction of proliferating cells (BrdU) [6]: significant reduction of proliferating cells; Zone of inhibition (Escherichia coli; [8]): 24.5 mm; Zone of inhibition [1, 9]: 49.5 mm; Zone of inhibition (Enterococcus faecalis): 42.5 mm); half-life compared to taurolidine [7]: significantly longer half-life |
| CC1OCCS(=O)(=O)N1C (centres unmarked) [Compound 2287] |  |  |  |  |  |  | < 10 | < 10 |  |
